Measurements as given in article PMC12713470, “Design and Synthesis of Novel Chalcone Derivatives Targeting Bladder and Liver Cancer: Cytotoxicity Evaluation and Preliminary Mechanistic Studies” (ACS Omega, 2025).
Like-named read-outs stand apart in the source and are kept apart here.

How the values were obtained:
[1] = tested on: MRC-5: human lung fibroblast cells; test: MTT cytotoxicity assay on MRC-5 cells; type: cell-based; settings: MRC5, 24 h incubation, n = 3, ± standard deviation
Method: (§1) Cytotoxicity was determined using the MTT colorimetric assay, and half-maximal inhibitory concentrations (IC50, μM) were obtained for all cell lines (Table ). The selectivity index (SI) was calculated as the ratio of IC50 MRC-5/IC50 cancer cell line. Doxorubicin was employed as a positive control due to its broad-spectrum clinical use, either alone or in combination, against hepatocellular, ovarian, cervical, and bladder cancers. −
(§2) In vitro biological assays were performed by using five human cell lines for cytotoxicity evaluation. HepG2 cells (ATCC HB-8065), derived from a human hepatocellular carcinoma of the liver (person), were cultured in Dulbecco’s modified Eagle medium (DMEM) supplemented with 5% fetal bovine serum (FBS), penicillin/streptomycin (100 IU/mL), and amphotericin B (5 μg/mL), in a humidified incubator with 5% CO2 at 37 °C. These cells were plated at a concentration of 2.0 × 10^4 cells/well in 96-well microplates. MRC-5 cells (ATCC CCL-171), derived from human lung fibroblasts of a […] fetus, were cultured under the same conditions and plated at 1.0 × 10^4 cells/well. T24 cells (ATCC HTB-4), established from a transitional cell carcinoma of the bladder (person), were also cultured under identical conditions and plated at a density of 1.0 × 10^4 cells/well. TOV-21G cells (ATCC CRL-11730), derived from a primary malignant ovarian adenocarcinoma (person), were maintained in DMEM with the same supplementation and environmental conditions and plated at 5.0 × 10^4 cells/well. […]
(§3) HeLa, HepG2, MRC-5, T24, and TOV-21G cells were suspended in a culture medium supplemented with 5% fetal bovine serum (FBS) and seeded into 96-well microplates. The plates were incubated under a humidified atmosphere containing 5% CO2 at 37 °C for 24 h, allowing for adherence and monolayer formation. , Eight serial dilutions of the test samples, previously solubilized in dimethyl sulfoxide (DMSO), were prepared in DMEM supplemented with 1% FBS, covering a concentration range from […], and the results were converted to […]. The volume of DMSO in each well was limited to a final concentration not exceeding 2%. Following monolayer formation, the culture medium was aspirated and replaced with 100 μL of the diluted test samples and 100 μL of DMEM containing 1% FBS. The plates were then incubated under the same atmospheric and temperature conditions.
(§4) Two hours prior to end point reading, 20 μL of MTT [3-(4,5-dimethylthiazol-2-yl)-2,5-diphenyltetrazolium bromide] solution (1.0 mg/mL in sterile phosphate-buffered saline, Sigma-Aldrich) was added to each well. The incubation period following sample addition varied according to the cell line: 24 h for MRC-5, 48 h for T24, and 72 h for HeLa, HepG2, and TOV-21G. After the appropriate incubation, absorbance was measured by using a VICTOR X3 microplate reader (PerkinElmer), and data were processed with WorkOut 2.5 software at a wavelength of 490 nm. Formazan formation, resulting from the MTT reduction by metabolically active cells, was used as an indirect measure of cell viability. The percentage of cytotoxicity was calculated using the equation % cytotoxicity = [(A – B)/A] × 100, where A is the optical density (OD4 9 0) of untreated control cells and B is the OD4 9 0 of treated cells.
(§5) Cytotoxicity was expressed as the 50% cytotoxic concentration (CC5 0), representing the concentration of sample required to reduce cell viability by 50% relative to that of the untreated control.

[2] = tested on: HeLa: human cervical adenocarcinoma cells; test: MTT cytotoxicity assay on HeLa cells; type: cell-based; settings: for IC50: Homo sapiens, HeLa, MTT, 72 h incubation, n = 3, NA: noncytotoxic at the concentrations tested; for SI (HeLa): IC50 MRC-5/IC50 HeLa
Method: as §1, §2, §3, §4, §5

[3] = tested on: HepG2: human liver hepatocellular carcinoma cells; test: MTT cytotoxicity assay on HepG2 cells; type: cell-based; settings: for IC50: Homo sapiens, HepG2, MTT, 72 h incubation, n = 3, NA: noncytotoxic at the concentrations tested; for SI (HepG2): IC50 MRC-5/IC50 HepG2
Method: as §1, §2, §3, §4, §5

[4] = tested on: T24: human urinary bladder carcinoma cells; test: MTT cytotoxicity assay on T24 cells; type: cell-based; settings: for IC50: Homo sapiens, T-24, MTT, 48 h incubation, n = 3, NA: noncytotoxic at the concentrations tested; for SI (T24): IC50 MRC-5/IC50 T24
Method: as §1, §2, §3, §4, §5

[5] = tested on: TOV-21G: human ovarian adenocarcinoma cells; test: MTT cytotoxicity assay on TOV-21G cells; type: cell-based; settings: for IC50: Homo sapiens, TOV21G, MTT, 72 h incubation, n = 3, NA: noncytotoxic at the concentrations tested; for SI (TOV-21G): IC50 MRC-5/IC50 TOV-21G
Method: as §1, §2, §3, §4, §5

[6] = tested on: HepG2: human liver hepatocellular carcinoma cells; parameters: method as in PMID 37944413; settings: hit compound, earlier study of the group; read-out: IC50 HepG2 (earlier work); cited from earlier work
HepG2 cells = tested on: HepG2 cells; parameters: method as in PMID 37944413; settings: hit compound, earlier study of the group; cited from earlier work
[7] = tested on: human hepatocellular carcinoma (HCC) cells; parameters: method as in Tsai and colleagues; settings: subtoxic concentrations (5–20 μM); ref Tsai and colleagues; cited from earlier work

| SMILES | IC50 [1] [µM] | IC50 [2] [µM] | SI (HeLa) [2] | IC50 [3] [µM] | SI (HepG2) [3] | IC50 [4] [µM] | SI (T24) [4] | IC50 [5] [µM] | SI (TOV-21G) [5] | activity against TOV-21G relative to hit 1 ([5]; ratio of IC50 values, 1 vs 2) | IC50 [6] [µM] | HepG2 cell migration (earlier work) (HepG2 cells) | migration and invasion of human hepatocellular carcinoma (HCC) cells [7] |
| --- | --- | --- | --- | --- | --- | --- | --- | --- | --- | --- | --- | --- | --- |
| COc1cc([N+](=O)[O-])cc(/C=C/C(=O)c2ccc(C)cc2)c1O [compound 7, (E)-3-(2-Hydroxy-3-methoxy-5-nitrophenyl)-1-(p-tolyl)-prop-2-en-1-one] | 28.1 ± 1.3 | 26.6 ± 1.8 | 1.0 | 16.6 ± 1.5 | 1.6 | 104 ± 1.9 | 0.2 | 23.8 ± 2.8 | 1.1 |  |  |  |  |
| CCCc1cc(/C=C/C(=O)c2ccc(C)cc2)c(OC(C)=O)c(OC)c1 [compound 2, (E)-2-Methoxy-6-(3-oxo-3-(p-toluyl)-prop-1-en-1-yl)-4-propylphenyl Acetate] | 16.1 ± 1.5 | 3.6 ± 1.3 | 4.7 | 4.2 ± 1.2 | 3.8 | 59.5 ± 1.5 | 0.2 | 1.2 ± 1.1 | 13.3 | over six times more active |  |  |  |
| CCCc1cc(/C=C/C(=O)c2ccc(O)cc2)c(O)c(OC)c1 [compound 10, (E)-3-(2-Hydroxy-3-methoxy-5-propylphenyl)-1-(4-hydroxyphenyl)-prop-2-en-1-one] | 5 ± 1.3 | 17.9 ± 2 | 0.2 | 18.9 ± 1.6 | 0.2 | 34.9 ± 1.4 | 0.1 | 7.2 ± 1.2 | 0.7 |  |  |  |  |
| COc1cc(N)cc(/C=C/C(=O)c2ccc(C)cc2)c1O [compound 8, (E)-3-(5-Amino-2-hydroxy-3-methoxyphenyl)-1-(p-tolyl)-prop-2-en-1-one] | 40.9 ± 2 | 11.5 ± 1.8 | 3.5 |  |  | 158.6 ± 1.4 | 0.2 | 53.1 ± 2.6 | 0.7 |  |  |  |  |
| CCCc1cc(OC)c(O)c(C(=O)/C=C/c2ccc(C)cc2)c1 [compound 16, (E)-1-(2-Hydroxy-3-methoxy-5-propylphenyl)-3-(p-tolyl)-prop-2-en-1-one] | 7.7 ± 1.5 | 12.8 ± 1.3 | 0.6 | 6.6 ± 1.4 | 1.1 | 17.1 ± 2.1 | 0.4 | 10.9 ± 1.5 | 0.7 |  |  |  |  |
| CCCc1cc(OC)c(O)c(C(=O)/C=C/c2ccc(O)cc2)c1 [compound 17, (E)-1-(2-Hydroxy-3-methoxy-5-propylphenyl)-3-(4-hydroxyphenyl)-prop-2-en-1-one] | 12.7 ± 1.4 | 114 ± 2.1 | 0.1 | 19.4 ± 1.4 | 0.6 | 36.4 ± 1.5 | 0.3 | 39 ± 1.5 | 0.3 |  |  |  |  |
| CCCc1cc(/C=C/C(=O)c2ccc(C)cc2)c(OCc2ccccc2)c(OC)c1 [compound 4, (E)-3-(2-(Benzyloxy)-3-methoxy-5-propylphenyl)-1-(p-toluyl)-prop-2-en-1-one] | 242.4 ± 2.4 |  |  | 16.9 ± 1.3 | 14.3 |  |  |  |  |  |  |  |  |
| COc1cccc2c1C(=O)c1c(O)c3c(c(O)c1C2=O)C[C@@](O)(C(=O)CO)C[C@@H]3O[C@H]1C[C@H](N)[C@H](O)[C@H](C)O1 [doxorubicin, reference compound] | 0.6 ± 1.2 | 2.9 ± 1.1 | 0.2 | 0.06 |  | 4.4 ± 1.3 | 0.1 | 0.5 | 1.3 |  |  |  |  |
| CCCc1cc(/C=C/C(=O)c2ccc(C(=O)/C=C/c3cc(CCC)cc(OC)c3O)cc2)c(O)c(OC)c1 [compound 12, (2E,2′E)-1,1′-(1,4-Phenylene)-bis(3-(2-hydroxy-3-methoxy-5-propylphenyl)-prop-2-en-1-one)] | 35 ± 1.5 | 20.4 ± 1.5 | 1.7 |  |  | 10.4 ± 1.7 | 3.3 | 33.7 ± 2.4 | 1.0 |  |  |  |  |
| CCCc1cc(OC)c(O)c(C(=O)/C=C/c2ccccc2)c1 [compound 15, (E)-1-(2-Hydroxy-3-methoxy-5-propylphenyl)-3-phenylprop-2-en-1-one] | 18.4 ± 1.9 | 13.7 ± 1.5 | 1.3 | 16.1 ± 1.2 | 1.1 | 18.4 ± 1.9 | 1 | 5.4 ± 1.2 | 3.3 |  |  |  |  |
| CCCc1cc(OC)c(O)c(C(=O)/C=C/c2ccc(F)cc2)c1 [compound 18, (E)-3-(4-Fluorophenyl)-1-(2-hydroxy-3-methoxy-5-propylphenyl)-prop-2-en-1-one] | 11.5 ± 1.2 | 4.1 ± 1.3 | 2.8 | 8.3 ± 1.2 | 1.3 | 15.4 ± 1.5 | 0.7 | 4.8 ± 1.4 | 2.3 |  |  |  |  |
| CCCc1cc(/C=C/C(=O)c2ccc(C)cc2)c(O)c(OC)c1 [compound 1] | 47.2 ± 1.3 |  |  | 4.2 ± 1.3 | 11.1 | > 161 | <0.2 | 7.2 ± 1.3 | 6.5 |  | 4.25 | inhibiting HepG2 cell migration |  |
| CCCc1cc(/C=C/C(=O)c2ccccc2)c(O)c(OC)c1 [compound 11, (E)-3-(2-Hydroxy-3-methoxy-5-propylphenyl)-1-phenylprop-2-en-1-one] | 11 ± 1.2 | 2.1 ± 1.1 | 5.2 | 4.6 ± 1.2 | 2.3 | 9.2 ± 1.2 | 1.2 | 11.9 ± 1.5 | 0.9 |  |  |  |  |
| C=CC(C)(C)c1cc(/C=C/C(=O)c2ccc(O)cc2)c(OC)cc1O [licochalcone A] |  |  |  |  |  |  |  |  |  |  |  |  | effectively inhibited migration and invasion |
